We go through 29 compounds from patent US8691865B2 (AbbVie Inc., priority 2008, dated 2014).

Chain of human Cav2.2 (Q00975 whole entry): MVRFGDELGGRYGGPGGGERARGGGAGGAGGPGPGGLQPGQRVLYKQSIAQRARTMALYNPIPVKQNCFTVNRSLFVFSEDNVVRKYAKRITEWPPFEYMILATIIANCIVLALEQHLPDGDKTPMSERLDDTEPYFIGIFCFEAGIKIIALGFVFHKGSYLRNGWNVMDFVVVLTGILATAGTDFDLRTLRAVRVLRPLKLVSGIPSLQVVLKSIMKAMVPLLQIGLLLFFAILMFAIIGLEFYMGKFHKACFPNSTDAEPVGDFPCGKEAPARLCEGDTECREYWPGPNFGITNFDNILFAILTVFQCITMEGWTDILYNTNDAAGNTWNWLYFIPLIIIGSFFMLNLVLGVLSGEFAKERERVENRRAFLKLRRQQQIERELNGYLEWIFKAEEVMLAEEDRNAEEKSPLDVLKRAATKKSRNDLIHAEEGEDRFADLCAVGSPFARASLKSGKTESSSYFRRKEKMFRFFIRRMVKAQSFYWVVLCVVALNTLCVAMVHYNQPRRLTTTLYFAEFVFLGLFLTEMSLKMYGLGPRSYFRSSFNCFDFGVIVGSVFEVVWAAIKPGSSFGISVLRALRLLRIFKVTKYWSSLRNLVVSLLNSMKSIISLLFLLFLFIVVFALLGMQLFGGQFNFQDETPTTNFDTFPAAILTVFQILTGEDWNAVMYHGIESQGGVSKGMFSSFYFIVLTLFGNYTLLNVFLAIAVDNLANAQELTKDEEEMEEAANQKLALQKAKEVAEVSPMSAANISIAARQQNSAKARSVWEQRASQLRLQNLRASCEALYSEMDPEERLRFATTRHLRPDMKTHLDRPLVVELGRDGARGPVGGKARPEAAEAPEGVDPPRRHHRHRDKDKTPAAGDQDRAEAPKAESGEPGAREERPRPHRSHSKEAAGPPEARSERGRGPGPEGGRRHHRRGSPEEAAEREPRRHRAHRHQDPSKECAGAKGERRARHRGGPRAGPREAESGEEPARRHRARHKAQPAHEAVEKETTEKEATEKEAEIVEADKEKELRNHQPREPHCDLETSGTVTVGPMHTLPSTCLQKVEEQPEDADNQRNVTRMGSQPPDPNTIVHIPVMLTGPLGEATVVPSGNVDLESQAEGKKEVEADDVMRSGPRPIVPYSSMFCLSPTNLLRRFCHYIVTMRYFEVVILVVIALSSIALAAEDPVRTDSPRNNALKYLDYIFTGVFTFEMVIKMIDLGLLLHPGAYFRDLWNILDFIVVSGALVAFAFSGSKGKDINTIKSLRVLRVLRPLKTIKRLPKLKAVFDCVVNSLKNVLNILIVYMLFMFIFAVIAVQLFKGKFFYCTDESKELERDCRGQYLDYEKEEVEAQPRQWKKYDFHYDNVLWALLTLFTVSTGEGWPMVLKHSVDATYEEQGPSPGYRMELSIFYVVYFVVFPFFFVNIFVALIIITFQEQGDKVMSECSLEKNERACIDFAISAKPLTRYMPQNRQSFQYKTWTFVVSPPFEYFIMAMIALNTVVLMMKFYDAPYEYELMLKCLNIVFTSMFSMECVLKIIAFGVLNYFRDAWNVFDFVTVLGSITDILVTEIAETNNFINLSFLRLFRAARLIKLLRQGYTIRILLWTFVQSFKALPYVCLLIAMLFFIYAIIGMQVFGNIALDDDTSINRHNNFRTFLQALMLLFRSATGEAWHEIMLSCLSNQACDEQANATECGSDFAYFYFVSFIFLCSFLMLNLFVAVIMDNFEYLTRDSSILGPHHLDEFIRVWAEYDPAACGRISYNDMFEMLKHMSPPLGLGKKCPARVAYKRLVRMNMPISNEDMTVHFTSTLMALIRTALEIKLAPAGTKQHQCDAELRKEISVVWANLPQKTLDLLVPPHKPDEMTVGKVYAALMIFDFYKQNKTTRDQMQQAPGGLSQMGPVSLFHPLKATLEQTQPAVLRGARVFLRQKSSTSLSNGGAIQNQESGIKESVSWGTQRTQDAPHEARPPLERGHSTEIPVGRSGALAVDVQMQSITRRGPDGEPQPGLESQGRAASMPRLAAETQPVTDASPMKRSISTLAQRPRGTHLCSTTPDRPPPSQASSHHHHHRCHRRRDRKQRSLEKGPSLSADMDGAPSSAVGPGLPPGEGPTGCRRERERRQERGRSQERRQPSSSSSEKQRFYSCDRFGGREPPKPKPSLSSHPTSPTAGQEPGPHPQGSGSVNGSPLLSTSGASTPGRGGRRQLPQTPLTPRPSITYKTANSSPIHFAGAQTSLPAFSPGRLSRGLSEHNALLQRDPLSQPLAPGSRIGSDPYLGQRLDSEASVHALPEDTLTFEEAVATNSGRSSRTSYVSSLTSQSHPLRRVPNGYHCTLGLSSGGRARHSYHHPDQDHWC
Chain of human Cav2.2 (P54289 25-956 partner limits assumed): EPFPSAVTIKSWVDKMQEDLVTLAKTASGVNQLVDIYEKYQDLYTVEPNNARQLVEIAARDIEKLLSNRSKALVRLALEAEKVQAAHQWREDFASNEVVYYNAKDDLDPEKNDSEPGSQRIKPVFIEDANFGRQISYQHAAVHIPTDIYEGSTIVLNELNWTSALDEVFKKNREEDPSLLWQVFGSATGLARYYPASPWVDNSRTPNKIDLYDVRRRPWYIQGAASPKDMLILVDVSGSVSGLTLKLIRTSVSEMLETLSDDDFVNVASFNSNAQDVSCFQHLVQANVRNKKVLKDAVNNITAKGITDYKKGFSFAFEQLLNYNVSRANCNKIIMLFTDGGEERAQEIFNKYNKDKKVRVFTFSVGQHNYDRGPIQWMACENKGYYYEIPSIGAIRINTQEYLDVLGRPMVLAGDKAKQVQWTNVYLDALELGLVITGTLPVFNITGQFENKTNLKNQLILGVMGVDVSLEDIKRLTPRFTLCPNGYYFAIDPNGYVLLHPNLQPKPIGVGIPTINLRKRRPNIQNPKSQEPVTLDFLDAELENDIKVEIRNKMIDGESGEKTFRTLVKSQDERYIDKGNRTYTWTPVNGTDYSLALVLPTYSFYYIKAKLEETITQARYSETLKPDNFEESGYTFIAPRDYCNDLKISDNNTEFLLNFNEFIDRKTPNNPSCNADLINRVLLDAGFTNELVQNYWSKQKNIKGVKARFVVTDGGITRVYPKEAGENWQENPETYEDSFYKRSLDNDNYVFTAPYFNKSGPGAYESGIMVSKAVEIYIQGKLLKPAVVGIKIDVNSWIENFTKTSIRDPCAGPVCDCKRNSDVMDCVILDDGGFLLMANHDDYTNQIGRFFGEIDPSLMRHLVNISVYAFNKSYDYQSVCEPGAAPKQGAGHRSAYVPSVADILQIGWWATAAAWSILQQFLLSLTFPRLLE
Chain of human Cav2.2 (P54289 957-1103 partner limits assumed): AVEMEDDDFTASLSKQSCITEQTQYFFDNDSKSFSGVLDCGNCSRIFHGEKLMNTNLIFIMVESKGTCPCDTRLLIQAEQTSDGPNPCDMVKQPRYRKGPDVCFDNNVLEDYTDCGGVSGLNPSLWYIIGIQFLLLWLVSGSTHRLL
Chain of human Cav2.2 (P54284 whole entry partner): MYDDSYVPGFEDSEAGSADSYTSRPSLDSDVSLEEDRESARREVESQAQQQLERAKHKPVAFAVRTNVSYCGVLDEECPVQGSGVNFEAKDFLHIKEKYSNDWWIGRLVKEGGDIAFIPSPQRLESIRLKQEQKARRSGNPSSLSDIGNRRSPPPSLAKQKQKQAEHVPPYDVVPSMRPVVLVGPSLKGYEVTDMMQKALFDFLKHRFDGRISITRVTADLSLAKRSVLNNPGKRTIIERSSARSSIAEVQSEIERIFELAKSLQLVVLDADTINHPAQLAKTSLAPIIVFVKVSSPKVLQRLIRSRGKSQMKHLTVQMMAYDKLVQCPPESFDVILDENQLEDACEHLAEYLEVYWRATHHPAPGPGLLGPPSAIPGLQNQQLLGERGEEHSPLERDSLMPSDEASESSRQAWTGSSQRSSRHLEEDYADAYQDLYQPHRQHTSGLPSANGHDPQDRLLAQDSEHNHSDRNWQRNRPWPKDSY

The first assay concerns the target human Cav2.2 (Homo sapiens, UniProt Q00975). Put plainly: Assessment of calcium channel activity using FLIPR (Ca2+ influx in IMR32 cells). The format is cell-based.
Conditions: not given
In outline: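 Human neuroblastoma IMR32 cells were seeded at 1−1.2×10^5 cells/well and cultured 48 h at 37 °C before FLIPR calcium influx measurement. Percent inhibition at each concentration was calculated against the no-inhibitor signal, and IC50 came from sigmoidal dose-response fits.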
For orientation: IC50 means the concentration that gives 50% inhibition. As to `CCC[C@H](NC(C)C)C(=O)N[C@@H]1CC[C@H]2CN(Cc3ccccc3)C[C@H]21` [Example 495, N^1-[(3aS,4R,6aR)-2-benzyloctahydrocyclopenta[c]pyrrol-4-yl]-N^2-isopropyl-L-norvalinamide], the concentration for half-maximal inhibition (IC50) was over 30 µM.

With `CCC[C@H](NC)C(=O)N[C@H]1CC[C@@H]2CN(c3ccc(C(F)(F)F)cc3)C[C@@H]21` [Example 759, N^2-methyl-N-{(3aR,4S,6aS)-2-[4-(trifluoromethyl)phenyl]octahydrocyclopenta[c]pyrrol-4-yl}-L-norvalinamide], the IC50 amounted to 13 µM.

Regarding `O=C(N[C@H]1CC[C@@H]2CN(c3ccc(C(F)(F)F)cn3)C[C@@H]21)[C@@H]1C[C@@H](F)CN1` [Example 780, (4R)-4-fluoro-N-{(3aR,4S,6aS)-2-[5-(trifluoromethyl)pyridin-2-yl]octahydrocyclopenta[c]pyrrol-4-yl}-L-prolinamide], the 50% inhibitory concentration (IC50) worked out at 14 µM.

Take `CNCC(=O)N[C@H]1CC[C@@H]2CN(c3ccc(C(F)(F)F)cc3)C[C@@H]21` [Example 752, N^2-methyl-N-{(3aR,4S,6aS)-2-[4-(trifluoromethyl)phenyl]octahydrocyclopenta[c]pyrrol-4-yl}glycinamide]: the half-inhibitory concentration (IC50) is over 9.5 µM.

For `CC(C)C(C(=O)N[C@H]1CC[C@@H]2CN(CCCc3ccccc3)C[C@@H]21)c1ccccc1` (stereo partly drawn) [Example 105, 3-methyl-2-phenyl-N-[(3aR,4S,6aS)-2-(3-phenylpropyl)octahydrocyclopenta[c]pyrrol-4-yl]butanamide], the IC50 was 1.21 µM.

On to `CCC[C@H](NC)C(=O)N[C@H]1CC[C@@H]2CN(S(=O)(=O)c3ccc(OC)c(OC)c3)C[C@@H]21` [Example 545, N^1-{(3aR,4S,6aS)-2-[(3,4-dimethoxyphenyl)sulfonyl]octahydrocyclopenta[c]pyrrol-4-yl}-N^2-methyl-L-norvalinamide], for which the half-maximal inhibitory concentration (IC50) was over 30 µM.

Turning to `O=S(=O)(c1cccc(C(F)(F)F)c1)N1C[C@H]2CC[C@H](NCc3cc4cc(F)ccc4[nH]3)[C@H]2C1` [Example 650, (3aR,4S,6aS)-N-[(5-fluoro-1H-indol-2-yl)methyl]-2-{[3-(trifluoromethyl)phenyl]sulfonyl}octahydrocyclopenta[c]pyrrol-4-amine], the IC50 was 0.59 µM.

Regarding `O=C(N[C@H]1CC[C@@H]2CN(c3ccc(C(F)(F)F)cn3)C[C@@H]21)[C@@H]1C[C@@H]2CCCC[C@@H]2N1` [Example 603, (2S,3aS,7aS)-N-{(3aR,4S,6aS)-2-[5-(trifluoromethyl)pyridin-2-yl]octahydrocyclopenta[c]pyrrol-4-yl}octahydro-1H-indole-2-carboxamide], the IC50 was 2.22 µM.

With `O=C(N[C@H]1CC[C@@H]2CN(c3cccc(C(F)(F)F)c3F)C[C@@H]21)[C@@H]1C[C@@H](F)CN1` [Example 623, (4R)-4-fluoro-N-{(3aR,4S,6aS)-2-[2-fluoro-3-(trifluoromethyl)phenyl]octahydrocyclopenta[c]pyrrol-4-yl}-L-prolinamide], the IC50 stood at 1.32 µM.

Turning to `O=C(N[C@H]1CC[C@H]2CN(Cc3cccc(C(F)(F)F)c3)C[C@H]21)C1CCCCCC1` (relative stereo) [Example 128, N-{(3aS*,4S*,6aR*)-2-[3-(trifluoromethyl)benzyl]octahydrocyclopenta[c]pyrrol-4-yl}cycloheptanecarboxamide], the 50% inhibitory concentration (IC50) is 0.56 µM.

`CN[C@H](C(=O)N[C@H]1CC[C@@H]2CN(c3ccc(C(F)(F)F)cn3)C[C@@H]21)C(C)C` [Example 763, N^2-methyl-N-{(3aR,4S,6aS)-2-[5-(trifluoromethyl)pyridin-2-yl]octahydrocyclopenta[c]pyrrol-4-yl}-L-valinamide]: the half-inhibitory concentration (IC50) was determined as 12.3 µM.

On to `Cc1oncc1C(=O)N[C@H]1CC[C@@H]2CN(c3cccc(C(F)(F)F)n3)C[C@@H]21` [Example 581, 5-methyl-N-{(3aR,4S,6aS)-2-[6-(trifluoromethyl)pyridin-2-yl]octahydrocyclopenta[c]pyrrol-4-yl}-1,2-oxazole-4-carboxamide], for which the IC50 is 2.99 µM.

In the case of `CC(C)CC(C(=O)NC1CCC2CN(Cc3ccc(C(F)(F)F)c(F)c3)CC21)N(C)C(=O)OC(C)(C)C` [Example 311, tert-butyl(S)-1-((3aS,4R,6aR)-2-(3-fluoro-4-(trifluoromethyl)benzyl)octahydrocyclopenta[c]pyrrol-4-ylamino)-4-methyl-1-oxopentan-2-ylmethyl)carbamate], the 50% inhibitory concentration (IC50) came out at 2.05 µM.

Regarding `O=C(N[C@H]1CC[C@@H]2CN(c3cccc(C(F)(F)F)n3)C[C@@H]21)[C@@H]1C[C@H](F)CN1` [Example 596, (4S)-4-fluoro-N-{(3aR,4S,6aS)-2-[6-(trifluoromethyl)pyridin-2-yl]octahydrocyclopenta[c]pyrrol-4-yl}-L-prolinamide], the IC50 stood at 4.47 µM.

Take `O=S(=O)(N[C@H]1CC[C@@H]2CN(c3cccc(C(F)(F)F)n3)C[C@@H]21)c1ccccc1` [Example 708, N-{(3aR,4S,6aS)-2-[6-(trifluoromethyl)pyridin-2-yl]octahydrocyclopenta[c]pyrrol-4-yl}benzenesulfonamide]: the IC50 turned out to be 3.35 µM.

On to `O=C(N[C@H]1CC[C@@H]2CN(c3ccc(Cl)cc3)C[C@@H]21)[C@@H]1C[C@@H](F)CN1` [Example 644, (4R)-N-[(3aR,4S,6aS)-2-(4-chlorophenyl)octahydrocyclopenta[c]pyrrol-4-yl]-4-fluoro-L-prolinamide], for which the IC50 amounted to 8.5 µM.

Consider `CC(C)[C@@H](C(=O)N[C@@H]1CC[C@H]2CN(Cc3cccc(C(F)(F)F)c3)C[C@H]21)N(C)C(=O)OC(C)(C)C` [Example 316, tert-butyl methyl((S)-3-methyl-1-oxo-1-((3aS,4R,6aR)-2-(3-(trifluoromethyl)benzyl)octahydrocyclopenta[c]pyrrol-4-ylamino)butan-2-yl)carbamate], for which the IC50 turned out to be 2.02 µM.

Staying with this assay, now noted: read-out: IC50 (μM) or percent inhibition (* indicates 3 minute incubation, otherwise 60 minute); IC50; 60 minute pre-incubation with compound; IMR32 cells, 80 mM KCl depolarization.
Take `CCC[C@H](NC)C(=O)N[C@H]1CC[C@@H]2CN(S(=O)(=O)c3ccc(OC)cc3)C[C@@H]21` [Example 537, N^1-{(3aR,4S,6aS)-2-[(4-methoxyphenyl)sulfonyl]octahydrocyclopenta[c]pyrrol-4-yl}-N^2-methyl-L-norvalinamide]: the IC50 came out at 11.3 µM.

Take `O=C(N[C@@H]1CC[C@H]2CN(Cc3cc(C(F)(F)F)cc(C(F)(F)F)c3)C[C@H]21)C(C1CCCCC1)C1CCCCC1` [Example 77, N-{(3aS,4R,6aR)-2-[3,5-bis(trifluoromethyl)benzyl]octahydrocyclopenta[c]pyrrol-4-yl}-2,2-dicyclohexylacetamide]: the IC50 was determined as 9.36 µM.

Regarding `CC(C)C[C@H](NC(=O)OC(C)(C)C)C(=O)N[C@@H]1CC[C@H]2CN(Cc3cccc(C(F)(F)F)c3)C[C@H]21` (relative stereo) [Example 148, N^2-(tert-butyloxycarbonyl)-N^1-{(3aS*,4R*,6aR*)-2-[3-(trifluoromethyl)benzyl]octahydrocyclopenta[c]pyrrol-4-yl}-L-leucinamide], the half-maximal inhibitory concentration (IC50) is 0.83 µM.

For `O=S(=O)(c1cccc(C(F)(F)F)c1)N(C1CC1)[C@H]1CC[C@H]2CN(Cc3cccc(C(F)(F)F)c3)C[C@H]21` (relative stereo) [Example 204, N-cyclopropyl-3-(trifluoromethyl)-N-{(3aS*,4S*,6aR*)-2-[3-(trifluoromethyl)benzyl]octahydrocyclopenta[c]pyrrol-4-yl}benzenesulfonamide], the IC50 was 1.27 µM.

Take `O=S(=O)(N[C@@H]1CC[C@H]2CN(Cc3cc(C(F)(F)F)cc(C(F)(F)F)c3)C[C@H]21)c1cccc(C(F)(F)F)c1` [Example 192, N-{(3aS,4R,6aR)-2-[3,5-bis(trifluoromethyl)benzyl]octahydrocyclopenta[c]pyrrol-4-yl}-3-(trifluoromethyl)benzenesulfonamide]: the IC50 worked out at 2.27 µM.

`O=C(N[C@H]1CC[C@H]2CN(CCCc3cccc(Cl)c3)C[C@H]21)C(C1CCCCC1)C1CCCCC1` [Example 67, N-{(3aS,4S,6aR)-2-[3-(3-chlorophenyl)propyl]octahydrocyclopenta[c]pyrrol-4-yl}-2,2-dicyclohexylacetamide]: the IC50 worked out at 1.32 µM.

Consider `CC(C)(C)[C@H](NS(C)(=O)=O)C(=O)N[C@H]1CC[C@@H]2CN(Cc3ccc(C(F)(F)F)cc3)C[C@@H]21` [Example 520, 3-methyl-N^2-(methylsulfonyl)-N^1-{(3aR,4S,6aS)-2-[4-(trifluoromethyl)benzyl]octahydrocyclopenta[c]pyrrol-4-yl}-L-valinamide], for which the IC50 turned out to be 12.8 µM.

Take `O=S(=O)(N[C@@H]1CC[C@H]2CN(Cc3cccc(C(F)(F)F)c3)C[C@H]21)c1cccc(C(F)(F)F)c1` [Example 189, 3-(trifluoromethyl)-N-{(3aS,4R,6aR)-2-[3-(trifluoromethyl)benzyl]octahydrocyclopenta[c]pyrrol-4-yl}benzenesulfonamide]: the IC50 amounted to 1.01 µM.

In the case of `O=C(N[C@H]1CC[C@H]2CN(Cc3ccc(F)c(C(F)(F)F)c3)C[C@H]21)C(C1CCCCC1)C1CCCCC1` [Example 57, 2,2-dicyclohexyl-N-{(3aS,4S,6aR)-2-[4-fluoro-3-(trifluoromethyl)benzyl]octahydrocyclopenta[c]pyrrol-4-yl}acetamide], the IC50 was found to be 0.29 µM.

Consider `CC(C)C[C@@H](C(=O)N[C@@H]1CC[C@H]2CN(Cc3ccccc3)C[C@H]21)N(C)S(C)(=O)=O` [Example 168, N^1-[(3aS,4R,6aR)-2-benzyloctahydrocyclopenta[c]pyrrol-4-yl]-N^2-methyl-N^2-(methylsulfonyl)-L-leucinamide], for which the concentration for half-maximal inhibition (IC50) is 12.9 µM.

For `CC(C)C(C(=O)N[C@H]1CC[C@@H]2CN(Cc3ccccc3F)C[C@@H]21)c1ccccc1` (stereo partly drawn) [Example 85, N-[(3aR,4S,6aS)-2-(2-fluorobenzyl)octahydrocyclopenta[c]pyrrol-4-yl]-3-methyl-2-phenylbutanamide], the IC50 was found to be 3.59 µM.

On to `O=C(N[C@@H]1CC[C@H]2CN(Cc3ccc(C(F)(F)F)c(F)c3)C[C@H]21)C(C1CCCCC1)C1CCCCC1` [Example 76, 2,2-dicyclohexyl-N-{(3aS,4R,6aR)-2-[3-fluoro-4-(trifluoromethyl)benzyl]octahydrocyclopenta[c]pyrrol-4-yl}acetamide], for which the IC50 turned out to be 5.67 µM.
